Experiments:
[1] = system: doubled haploid embryos; experiment: Potting rate and root growth, metcamifen post-treatment during germination; type: in vivo, maize; settings: for Potting Rate Mean: post-treatment in germination media (2.5 g/L Gelzan)
Description: (§1) As used herein, the term “potted rate” or “potting rate” refers to the percent of germinated embryos successfully transferred to soil from total treated haploid embryos. The “potted rate” is used as an indication of plant health in monitoring the success of recovery and growth after treatment of haploids. As used herein, the term “transplant rate” refers to the survival of healthy plants after embryos were germinated and transferred to soil.
Doubled haploid embryos were treated with metcamifen during germination. Metcamifen was tested in the germination media at 0, 5, and 10 mg/L after colchicine treatment completion for 24 or 48 hours. The germination media comprised Gelzan at a concentration of 3.5 g/L. Four genotypes were tested representing two heterotic groups. […] The percent potting rate was not increased as result of these post-treatments. […] This led to a looping of the roots. A reduction in Gelzan concentration from 3.5 g/L to 2.5 g/L was tested (comparison data not presented here). The experiments were then carried out with 2.5 g/L Gelzan for metcamifen post-treatments while the control (0 metcamifen) contained 3.5 g/L Gelzan. Metcamifen was tested as 0, 5, 10 and 20 mg/L after colchicine treatment completion for 24 and 48 hours. The reduction in Gelzan of the metcamifen post-treatments led to a higher percent potting rate (see Table 5).

[2] = system: GST27; experiment: GST27 induction, metcamifen pre-treatment of maize ears; type: cell-based
Description: (§2) For the examples below, GST27 was used as a quick indicator for treatment effectiveness.
The effect of temperature was tested independently by comparing 6° C. and 28° C. for both 3 and 5 days with 150 PAR light.
Maize ears were pre-treated with metcamifen prior to embryo isolation and before moving the embryos to colchicine-containing doubling media. In all experiments, doubling media is semi-solid, thickened with Gelzan, unless liquid media is specified. Two methods of delivering the safener at concentrations of 100 and 1000 mg/L were tested. The first method wrapped the ear in a paper towel that was wet with formulated metcamifen. The second method used a sprayer to deliver the formulated metcamifen onto the ear surface at 6° C. with 150 PAR light. GST27 was measured after metcamifen pre-treatment and again at the end of colchicine treatment. A low level of GST27 was induced (<10 ng/mg Total Soluble Protein (TSP)) at the end of the ear pre-treatment. Following ear pre-treatment, embryos were isolated and treated with colchicine for 48 hours.
The addition of 0.5% Tween20 in the formulation with metcamifen at both 100 and 1000 mg/L was tested in combination with spraying corn ears as a pre-treatment prior to embryo isolation.

[3] = system: GST27; experiment: GST27 induction, metcamifen pre-treatment of isolated embryos; type: cell-based, maize; settings: for GST27 before doubling, Mean: embryo pre-treatment 10 mg/L in MS media; for GST27 Mean: embryo pre-treatment in MS media
Description: as §2
Embryos from maize ears were isolated and treated with metcamifen prior to a colchicine doubling treatment. Isolated embryos plated on filter paper were pre-treated with a formulation of metcamifen at concentrations of 0, 10, 100, and 1000 mg/L in Murashige and Skoog Medium (MS media) for a duration of 1, 3, 5, or 7 days at 6° C. with 150 PAR light. GST27 induction was measured after pre-treatment at each time point and again at the end of the colchicine treatment. Resulting embryos were germinated, and the percentage of embryos successfully transferred to soil (percent potted rate) was measured as an indicator of plant health and pre-treatment effectiveness. GST27 was induced by metcamifen at a medium level ([…] of TSP), but higher than ear pre-treatment that was less than 10 ng/ml of TSP.
The addition of 10% DMSO in the metcamifen formulation at 10, 100, and 1000 mg/L in the MS media was tested to potentially increase the uptake of metcamifen. This test was done at temperatures of both 6° C. and 20° C. over a course of 0 to 4 days. There was no increase in GST27 expression with the 10% DMSO addition at either temperature.
Embryo pre-treatment with metcamifen at 10 mg/L was tested at temperatures of 6° C. and 20° C. for 1 day to measure the impact of temperature on embryo health.

[4] = system: doubled haploids; experiment: Potting rate, thiamethoxam post-treatment during germination; type: in vivo, maize; settings: 14-21 days
Text: as §1
TMX was applied to doubled haploids by adding it to the germination media during the germination process. TMX was tested in 3 genotypes, in triplicate, with concentrations ranging from […], and the post-treatments incubated for 14 to 21 days (the normal duration of the regeneration period before transplant). The effect on potting rate was evaluated (see Table 12); no plants were advanced for transplant rate assessments due to poor germination.

CNC(=O)Nc1ccc(S(=O)(=O)NC(=O)c2ccccc2OC)cc1 [Metcamifen, metcamifen]
percent potting rate ([1]; post-treatment 5 and 10 mg/L, 3.5 g/L Gelzan, 24 or 48 hours): not increased | Potting Rate Mean ([1]; 5 mg/L, Duration 24 hours): 69% | Potting Rate Mean ([1]; 5 mg/L, Duration 48 hours): 18% | Potting Rate Mean ([1]; 10 mg/L, Duration 24 hours): 62% | Potting Rate Mean ([1]; 10 mg/L, Duration 48 hours): 24% | Potting Rate Mean ([1]; 20 mg/L, Duration 24 hours): 51% | Potting Rate Mean ([1]; 20 mg/L, Duration 48 hours): 23% | GST27 induced at the end of the ear pre-treatment ([2]; ear pre-treatment, 100 and 1000 mg/L, 6° C.): < 10 ng/mg Total Soluble Protein (TSP) | GST27 induced by ear pre-treatment ([2]; ear pre-treatment, as restated in Example 3): less than 10 ng/ml of TSP | GST27 before doubling, Mean ([2]; ear pre-treatment, metcamifen 100 mg/L, 3 days, 6° C.): 4 ng/mg of TSP | GST27 after doubling, Mean ([2]; ear pre-treatment, metcamifen 100 mg/L, 3 days, 6° C., then colchicine 48 hours): 156 ng/mg of TSP | GST27 before doubling, Mean ([2]; ear pre-treatment, metcamifen 100 mg/L, 5 days, 6° C.): 2 ng/mg of TSP | GST27 after doubling, Mean ([2]; ear pre-treatment, metcamifen 100 mg/L, 5 days, 6° C., then colchicine 48 hours): 245 ng/mg of TSP | GST27 before doubling, Mean ([2]; ear pre-treatment, metcamifen 1000 mg/L, 3 days, 6° C.): 3 ng/mg of TSP | GST27 after doubling, Mean ([2]; ear pre-treatment, metcamifen 1000 mg/L, 3 days, 6° C., then colchicine 48 hours): 178 ng/mg of TSP | GST27 before doubling, Mean ([2]; ear pre-treatment, metcamifen 1000 mg/L, 5 days, 6° C.): 4 ng/mg of TSP | GST27 after doubling, Mean ([2]; ear pre-treatment, metcamifen 1000 mg/L, 5 days, 6° C., then colchicine 48 hours): 303 ng/mg of TSP | GST27 induction at the end of the colchicine treatment ([2]; ear pre-treatment, then colchicine 48 hours): increased but insignificant | GST27 expression level with addition of 0.5% Tween20 ([2]; spraying corn ears, 100 and 1000 mg/L, over 4 days): did not improve | GST27 induction in comparison to the control and other doses ([3]; 10 mg/L, all time points, 6° C. and 20° C., DMSO test): best GST27 induction | GST27 expression with 10% DMSO addition ([3]; 10, 100, 1000 mg/L in MS media, 6° C. and 20° C., 0 to 4 days): no increase | GST27 before doubling, Mean ([3]; 1 day, 6° C.): 8.83 ng/mg TSP | GST27 before doubling, Mean ([3]; 1 day, 20° C.): 140 ng/mg TSP | GST27 Mean ([3]; 10 mg/L, 1 day, 6° C.): 9 ng/mg TSP | GST27 Mean ([3]; 10 mg/L, 3 days, 6° C.): 14 ng/mg TSP | GST27 Mean ([3]; 10 mg/L, 5 days, 6° C.): 37 ng/mg TSP | GST27 Mean ([3]; 10 mg/L, 7 days, 6° C.): 75 ng/mg TSP | GST27 Mean ([3]; 100 mg/L, 1 day, 6° C.): 21 ng/mg TSP | GST27 Mean ([3]; 100 mg/L, 3 days, 6° C.): 30 ng/mg TSP | GST27 Mean ([3]; 100 mg/L, 5 days, 6° C.): 61 ng/mg TSP | GST27 Mean ([3]; 100 mg/L, 7 days, 6° C.): 92 ng/mg TSP | GST27 Mean ([3]; 1000 mg/L, 1 day, 6° C.): 11 ng/mg TSP | GST27 Mean ([3]; 1000 mg/L, 3 days, 6° C.): 71 ng/mg TSP | GST27 Mean ([3]; 1000 mg/L, 5 days, 6° C.): 60 ng/mg TSP | GST27 Mean ([3]; 1000 mg/L, 7 days, 6° C.): 108 ng/mg TSP | GST27 induced by metcamifen (medium level) ([3]; embryo pre-treatment, 10-1000 mg/L, 1-7 days, 6° C.): < 100 ng/ml of TSP

CN1COCN(Cc2cnc(Cl)s2)/C1=N\[N+](=O)[O-] [TMX, thiamethoxam]
Potting Rate Mean ([4]; TMX 0.5 g/L): 53% | Potting Rate Mean ([4]; TMX 1 g/L): 50% | Potting Rate Mean ([4]; TMX 1.5 g/L): 27% | Potting Rate Mean ([4]; TMX 5 g/L): 3% | Potting Rate Mean ([4]; TMX 12 g/L): 0%

— US20260248087A1, “GENERATING DOUBLED HAPLOID PLANTS” (Syngenta Crop Protection AG, priority 2023, published 2026)
